Reference: patent US5929075A, “Apolipoprotein-B synthesis inhibitors” (Janssen Pharmaceutica, N.V., priority 1994, dated 1999)

Tested on: apolipoprotein B
Assay: Apolipoprotein B (apo B) inhibition test in cultured human liver cells (Hepg2-cells)
Assay type: cell-based
Conditions: concentration of the drug needed to reduce apoB secretion to 50% of the control, overnight at 37° C.
Experimental: Cultured human liver cells (Hepg2-cells), which synthesize and secrete low-density lipoproteins, were incubated overnight at 37° C. in a liquid medium containing radioactively labelled leucine. Thus radioactively labelled leucine was incorporated into the apolipoprotein B. The liquid medium was decanted and the apolipoprotein B was isolated by means of a double immunoprecipitation, i.e. first an apolipoprotein B-specific antibody (antibody1) was added to the liquid medium and subsequently a second antibody (antibody2) was added which binds specifically to the apoB-antibody1 -complex. The thus formed apoB-antibody1 -antibody2 complex precipitated and was isolated by centrifuge. Quantification of the amount of apolipoprotein B synthesized during the night resulted from measuring the radioactivity of the isolated complex. To measure the inhibiting activity of the test compound, that test compound was added to the liquid medium at different concentrations and the concentration of apolipoprotein B synthesized in the presence of a test compound (concentration apoB(after)) was compared to the concentration of apolipoprotein B which was synthesized in the absence of the test compound (concentration apoB(control)). For each experiment the inhibition of apolipoprotein-B formation was expressed as
% inhibition=100×(1-concentration of apoB(after)/concentration
When more experiments were carried out for the same concentration, the median value of the inhibition calculated for these experiments was calculated. IC50 -values (concentration of the drug needed to reduce apoB secretion to 50% of the control) were also computed.

- IC50: 0.023 µM
SMILES: CC[C@@H](C)n1ncn(-c2ccc(N3CCN(c4ccc(OC[C@@H]5CO[C@@](CSc6nncn6C)(c6ccc(Cl)cc6)O5)cc4)CC3)cc2)c1=O [Compound 40]
